The results in this text go back to publication PMC7004140, “In vitro hepatotoxicity of Petasites hybridus extract (Ze 339) depends on the concentration, the cytochrome activity of the cell system, and the species used” (Phytotherapy Research, 2019).

Where only a bound is given, the exact number is not on record here.

The target of one series is T1, CYP2C6 (rat) (Rattus norvegicus, UniProt P05178).
T1 construct: purchased BD Gentest (Switzerland); host or cells: baculovirus expression system
T1 sequence (P05178 1-490): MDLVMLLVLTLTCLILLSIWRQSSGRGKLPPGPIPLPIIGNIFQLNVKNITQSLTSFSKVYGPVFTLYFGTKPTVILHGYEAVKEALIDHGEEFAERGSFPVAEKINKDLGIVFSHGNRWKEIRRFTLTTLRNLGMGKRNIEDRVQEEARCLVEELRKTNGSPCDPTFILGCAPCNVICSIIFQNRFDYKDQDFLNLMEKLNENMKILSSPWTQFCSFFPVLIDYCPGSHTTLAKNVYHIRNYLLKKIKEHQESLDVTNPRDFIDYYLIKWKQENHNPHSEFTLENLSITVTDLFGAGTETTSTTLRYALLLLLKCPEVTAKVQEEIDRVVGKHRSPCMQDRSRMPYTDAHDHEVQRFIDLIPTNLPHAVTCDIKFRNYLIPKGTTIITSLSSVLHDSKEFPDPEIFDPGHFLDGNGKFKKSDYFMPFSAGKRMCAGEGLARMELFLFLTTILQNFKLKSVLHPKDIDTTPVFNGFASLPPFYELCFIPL
Put plainly: Metabolism by isolated rat CYP2C6. Format: in vitro ADME. Conditions: petasins 20 μM, 60 min. The source says: (§1) The metabolism of petasin, isopetasin, and neopetasin was investigated using three different S9 fractions originating from three different species (isolated from rat, dog, and human liver homogenates containing cytochrome P450 isoforms) and isolated cytochromes of two different species (human and rat; rat analogues of the respective human cytochromes were used). For the expression of the different cytochromes, a baculovirus expression system was used according to supplier's manual. The S9 fractions or respectively single P450 cytochromes were used to mimic the liver metabolism by in vitro incubation.
(§2) The assay was carried out in triplicate in 1.5 ml glass vials with a final concentration of 20 μM of petasin, isopetasin, and neopetasin. The incubation was performed in a 37°C warm water bath. S9 fractions were thawed slowly on ice. Four different approaches were pursued by testing: (a) petasin, neopetasin, and isopetasin before (0 min) and after 60 min incubations with S9 fraction; (b) petasin, neopetasin, and isopetasin without S9 fraction after 60 min incubation; (c) vehicle as negative controls; and (d) cofactors of S9 fraction after 60‐min incubation.
(§3) A mixture of NADPH regeneration systems A (20‐fold) and B (100‐fold), phosphate buffer, and H2O was added, preincubated at 37°C, and shaken gently for 5 min. Afterwards, the recommended amount between 10 and 40 pmol/ml of enzyme or enzyme mixture was added according to manufacturer's instruction and incubated for further 60 min at 37°C and gently shaken. Afterwards, the reactions were stopped by addition of acetonitrile (400 μl). For the control sample, acetonitrile was added at 0 min incubation. The samples were centrifuged for 3 min at 10,000 × g. The supernatant was transferred to high‐performance liquid chromatography vials and analyzed by ultra‐performance liquid chromatography mass spectrometry (UPLC/MS). The UPLC analysis was performed with an UPLC Acquity H Class from Waters (Waters Corporation, Switzerland) including a quaternary high‐pressure gradient pump, an automatic sample injector, and a column thermostat. […]

Series [1] in a line: Incubation without S9 fraction (solvent or cofactors only, negative controls). Format: in vitro ADME. To be noted: 20 μM, 60 min, data not shown; for metabolism with cofactors of S9 fraction only (negative control): cofactor only; for metabolism with solvent (negative control): solvent only. The method, then:
as §2
A mixture of NADPH regeneration systems A (20‐fold) and B (100‐fold), phosphate buffer, and H2O was added, preincubated at 37°C, and shaken gently for 5 min. Afterwards, the recommended amount between 10 and 40 pmol/ml of enzyme or enzyme mixture was added according to manufacturer's instruction and incubated for further 60 min at 37°C and gently shaken. Afterwards, the reactions were stopped by addition of acetonitrile (400 μl). For the control sample, acetonitrile was added at 0 min incubation. The samples were centrifuged for 3 min at 10,000 × g. The supernatant was transferred to high‐performance liquid chromatography vials and analyzed by ultra‐performance liquid chromatography mass spectrometry (UPLC/MS). The UPLC analysis was performed with an UPLC Acquity H Class from Waters (Waters Corporation, Switzerland) including a quaternary high‐pressure gradient pump, an automatic sample injector, and a column thermostat. Chromatographic separation was achieved on an Acquity BEH C18, […], 50 × 2.1 mm column (Waters, Switzerland). The mobile phase consisted of 0.1% formic acid (A) and acetonitrile (B). The initial gradient condition was 10% (B) followed by a step to 90% (B) until 6.0 min. The column temperature was adjusted to 40°C. The flow rate was 0.5 ml/min and the injection volume 5 μl. The mass spectrometry was performed in positive electrospray mode using an ACQUITY QDa mass detector (Waters Corporation, Switzerland). The single ion recording was set to 317.2 Da.

The target of the next series is T2, CYP2C8 (human) (Homo sapiens, UniProt P10632).
T2 construct: purchased BD Gentest (Switzerland); host or cells: baculovirus expression system
T2 sequence (P10632 1-490): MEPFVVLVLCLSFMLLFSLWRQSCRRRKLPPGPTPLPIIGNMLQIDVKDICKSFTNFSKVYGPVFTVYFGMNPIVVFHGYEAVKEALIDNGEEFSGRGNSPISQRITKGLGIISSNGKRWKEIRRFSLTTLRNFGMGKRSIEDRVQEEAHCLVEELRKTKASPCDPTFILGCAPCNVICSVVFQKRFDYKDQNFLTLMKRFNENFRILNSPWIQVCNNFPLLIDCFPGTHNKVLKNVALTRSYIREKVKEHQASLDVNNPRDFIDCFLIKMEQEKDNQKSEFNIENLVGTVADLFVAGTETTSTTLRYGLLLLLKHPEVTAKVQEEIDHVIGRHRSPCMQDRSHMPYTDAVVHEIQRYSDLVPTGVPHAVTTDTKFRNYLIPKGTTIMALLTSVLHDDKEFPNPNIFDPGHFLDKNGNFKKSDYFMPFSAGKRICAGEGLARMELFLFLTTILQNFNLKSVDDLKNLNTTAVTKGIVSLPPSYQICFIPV
The experiment in a line: Metabolism by isolated human CYP2C8. To be noted: petasins 20 μM, 60 min. It is filed as in vitro ADME.
Source text: as §1, §2, §3

A further series deals with HepaRG cells. The experiment in a line: WST-1 metabolic activity (cytotoxicity) in HepaRG cells. Conditions: 250 μM, 4 hr. Format: cell-based, human. The method, then:
HepG2 and H‐4‐II‐E cells were differentiated for 24 hr. HepaRG cells were directly seeded in precoated 96‐well microtiter plates and were incubated in William's medium with general purpose supplements according to manufacturer's manual until adherence. All cells were treated with Ze 339 (up to 100 μg/ml) or petasin, isopetasin, neopetasin, petasol, isopetasol, petasin mixture, fatty acid mixture, and reconstituted extracts (up to 250 μM) for 4 hr.
In the three cell lines, cytotoxicity was defined as a decrease in metabolic activity of ≥20% in the WST‐1 assay. At the end of the experiment, 10 μl WST‐1 reagent was added to each well. Plates were then incubated for 2 hr to allow for the reduction of WST‐1 reagent. Absorbance was measured using a microplate absorbance reader (Infinite M 200, Tecan Trading Ltd., Switzerland) at 450 nm, reference wavelength of 620 nm. Due to some matrix effect, the lowest concentration (0.02 μg/ml for Ze 339 and 3.9 μM for single constituents and mixtures) of each substance tested was defined as 100% metabolic activity. Results were expressed as percentage of the control metabolic activity, and data were presented as mean values ± SEM (n = 3–6).
Concentration‐response analysis was done using the sigmoidal Hill equation: E(t) = E0 − Emax × C(t)^N/(IC50 ^N + C(t)^N), where E is the effect at time t, E0 the effect at baseline (time = 0), IC50 the concentration yielding 50% of the maximal effect (Emax), and N denotes the sigmoidicity coefficient (Origin 2017 Software). For statistical analysis, analysis of variance with Dunnett's multicomparison test was used to correct for multiplicity of testing (IBM SPSS Statistics software, version 25, IBM Corp., USA). The level of significance was ^* p < .05, ^** p < .01 and ^*** p < .001; NS = no significance.
For orientation: Formazan colour is commonly taken as a measure of viable cells.

On to `C/C=C(/C)C(=O)O[C@@H]1CCC2=CC(=O)C(=C(C)C)C[C@]2(C)[C@H]1C` [isopetasin], for which, at CYP2C6 (rat), the “extent of metabolism by CYP2C6 (rat)” value amounted to 75%. In series [1], the “metabolism with cofactors of S9 fraction only (negative control)” value is < 1% and the “metabolism with solvent (negative control)” value (“metabolism with solvent” for short) is < 1%. Also, the “extent of metabolism by CYP2C8 (human)” value at CYP2C8 (human) is listed as 44%. The same molecule showed a metabolic activity in the series on HepaRG cells of 73%.
Consider `C=C(C)[C@H]1C[C@@]2(C)C(=CC1=O)CC[C@@H](OC(=O)/C(C)=C\C)[C@@H]2C` [neopetasin], for which, on CYP2C6 (rat), the “extent of metabolism by CYP2C6 (rat)” value amounted to 72%. In series [1], the “metabolism with cofactors of S9 fraction only (negative control)” value is reported as < 1% and the “metabolism with solvent” value is recorded as < 1%. The “extent of metabolism by CYP2C8 (human)” value on CYP2C8 (human) is on record as 71%. This molecule also showed a metabolic activity in the series with HepaRG cells of 28.9%.
Regarding `C=C(C)[C@@H]1C[C@@]2(C)C(=CC1=O)CC[C@@H](OC(=O)/C(C)=C\C)[C@@H]2C` [petasin], on CYP2C6 (rat), the “extent of metabolism by CYP2C6 (rat)” value stood at 94%. In addition, in series [1], the “metabolism with cofactors of S9 fraction only (negative control)” value worked out at 10% and the “metabolism with solvent” value was < 1%. In addition, the “extent of metabolism by CYP2C8 (human)” value on CYP2C8 (human) was 54%. In addition, the metabolic activity in the series with HepaRG cells amounted to 37.7%.
